Laboratory results taken from ChEMBL document CHEMBL1143319, “Structure-based virtual screening for novel inhibitors of the sarco/endoplasmic reticulum calcium ATPase and their experimental evaluation” (Bioorg Med Chem, 2009).

Assay: Inhibition of rabbit hind leg tissue microsomes ATPase activity of SERCA assessed as ATP hydrolysis
Set-up: species or system Oryctolagus cuniculus

Compound | IC50 [µM]
CC(c1ccc(O)cc1)C(C)c1ccc(O)cc1 (centres undefined) | 28.3
Oc1cc(Cc2ccccc2)c(O)cc1Cc1ccccc1 | 9.4
Oc1ccc2ccccc2c1Cc1c(O)ccc2ccccc12 | 15
CC(C)(C)c1cc2c(cc1O)CCC2 | 28.1
CCC(C)(c1ccc(O)c(C)c1)c1ccc(O)c(C)c1 | 39.3
CC(c1ccccc1)c1cc(C(C)(C)C)cc(C(C)(C)C)c1O (centres undefined) | 33.8
Cc1cc(C(C)(C)c2cc(C)c(O)c(C)c2)cc(C)c1O | 19.5
CC(C)(C)c1cc(O)c(C(C)(C)C)cc1O | 0.4
CC(C)Cc1ccc(CC(C)C)c(O)c1 | 18.8
Oc1ccc(O)c(C2CCCCCCC2)c1 | 11.5
Oc1ccc2ccccc2c1Cc1cccc2ccccc12 | 27.3
Oc1cc(Cc2ccccc2)c(Cc2ccccc2)cc1O | 23.8
CC(C)(C)c1ccc(O)c(Cc2cc(C(C)(C)C)ccc2O)c1 | 11.8
CC(C)CCCCCCc1ccc(O)cc1 | 17.2
CC(c1ccccc1)(c1ccccc1)c1ccc(O)cc1 | 49.7
COc1ccc(C(C)c2cc(C(C)(C)C)cc(C(C)(C)C)c2O)cc1 (centres undefined) | 35.3
COc1ccc(C(C)c2cc(C(C)(C)C)c(O)c(C(C)(C)C)c2)cc1 (centres undefined) | 45.4
CC(C)(C)c1ccc(O)c(C(c2cc(C(C)(C)C)ccc2O)c2cc(C(C)(C)C)ccc2O)c1 | 21.3
CC(=O)C1=C(O)[C@@H]2[C@H]3c4c[nH]c5cccc(c45)C[C@H]3C(C)(C)N2C1=O [CYCLOPIAZONIC ACID] | 0.12
